Reference: ChEMBL document CHEMBL5338711, “Designing and development of phthalimides as potent anti-tubulin hybrid molecules against malaria” (Eur J Med Chem, 2022)
Active and inactive are the calls of the source. The rule behind the calls is not given here.

Assays:
Plasmodium falciparum [1] = assay: Antimalarial activity against […] infected in human RBC assessed as inhibition of plasmodial growth at 1 uM by SYBR green dye based spectrofluorometric analysis relative to control; type: functional; conditions: 3D7, Erythrocyte
Plasmodium falciparum [2] = assay: Antimalarial activity against […] infected in human RBC assessed as inhibition of plasmodial growth at 10 uM by SYBR green dye based spectrofluorometric analysis relative to control; type: functional; conditions: 3D7, Erythrocyte
Plasmodium falciparum [3] = assay: Antiplasmodial activity against […] incubated for 90 hrs by SYBR green I dye based analysis; type: functional, organism-based; conditions: 3D7, 90 h
[4] = Cytotoxicity against human U-937 cells assessed as reduction in cell viability incubated for 24 hrs by MTT assay; type: toxicity, cell-based
[5] = Cytotoxicity against human HepG2 cells; type: toxicity, cell-based
Plasmodium falciparum [6] = assay: Antimalarial activity against chloroquine-sensitive synchronized late stage trophozoite Plasmodium falciparum 3D7 infected in human RBC assessed as inhibition of plasmodial growth by giemsa staining based analysis; type: functional, organism-based; conditions: 3D7, Erythrocyte
Plasmodium falciparum [7] = assay: Antimalarial activity against chloroquine-resistant synchronized late stage trophozoite Plasmodium falciparum RKL-9 infected in human RBC assessed as inhibition of plasmodial growth by giemsa staining based analysis; type: functional, organism-based; conditions: RKL-9, Erythrocyte
Plasmodium falciparum [8] = assay: Antimalarial activity against chloroquine-resistant Plasmodium falciparum RKL-9 infected in human RBC assessed as reduction of plasmodial growth by SYBR green dye based spectrofluorometric analysis; type: functional, organism-based
Erythrocyte = assay: Hemolytic activity in human RBC assessed as hemolysis upto 5 uM incubated for 2 hrs; type: toxicity, cell-based
[9] = Therapeutic index, ratio of CC50 for human HepG2 cells to IC50 for chloroquine-sensitive synchronized late stage trophozoite Plasmodium falciparum 3D7 infected in human RBC; type: toxicity; conditions: read-out: TI
[10] = Cytotoxicity against […] cell upto 500 uM; type: toxicity, cell-based; conditions: human
Plasmodium falciparum [11] = assay: Antiplasmodial activity against synchronized ring stage Plasmodium falciparum 3D7 infected in human RBC assessed as reduction in transformation into pyknotic trophozoites by measuring delay in ring maturation at IC50 concentration measured after 60 hrs by giemsa staining based light microscopic analysis; type: functional, organism-based
Plasmodium falciparum [12] = assay: Induction of mitochondrial membrane depolarization in trophozoite stage Plasmodium falciparum 3D7 infected in human RBC assessed as increase in green fluorescence at IC50 concentration incubated for 3 hrs by JC-1 dye based fluorescence microscopic analysis; type: functional, organism-based
Plasmodium falciparum [13] = assay: Induction of mitochondrial membrane depolarization in trophozoite stage Plasmodium falciparum 3D7 infected in human RBC assessed as decrease in red to green fluorescence ratio at IC50 concentration incubated for 3 hrs by JC-1 dye based fluorescence microscopic analysis; type: functional, organism-based
Plasmodium falciparum [14] = assay: Induction of mitochondrial membrane depolarization in trophozoite stage Plasmodium falciparum 3D7 infected in human RBC assessed as red to green fluorescence ratio at IC50 concentration incubated for 3 hrs by JC-1 dye based spectrofluorometric analysis (reference value: 6.96+/-0.94); type: functional
Plasmodium falciparum [15] = assay: Synergistic antimalarial activity against synchronized ring stage Plasmodium falciparum 3D7 infected in human RBC assessed as mean fractional inhibitory concentration at 1:1 ratio of ART to compound incubated for 72 hrs by giemsa staining based flow cytometric analysis; type: functional
Plasmodium berghei [16] = assay: Antimalarial activity against Plasmodium berghei ANKA in BALB/c mouse injected with parasite infected erythrocytes assessed as decrease in parasite load at 30 mg/kg, ip administered daily for 7 days relative to control; type: functional; design: scale not given: the % may be the effect or the level left; conditions: time 7 day
Plasmodium berghei [17] = assay: Antimalarial activity against Plasmodium berghei ANKA in BALB/c mouse injected with parasite infected erythrocytes assessed as reduction in parasitemia at 30 mg/kg, ip administered daily for 7 days and measured after 15 days; type: functional, organism-based; conditions: time 15.0 day
Plasmodium berghei [18] = assay: Antimalarial activity against Plasmodium berghei ANKA in BALB/c mouse injected with parasite infected erythrocytes assessed as […] mean survival time at 30 mg/kg, ip administered daily for 7 days and measured after 15 days; type: functional; conditions: time 15 day
Plasmodium falciparum [19] = assay: Antiplasmodial activity against synchronized ring stage Plasmodium falciparum 3D7 infected in human RBC assessed as defect in invasion stage by measuring merozoites sticking on the red blood cell surface at IC50 concentration measured after 60 hrs by giemsa staining based light microscopic analysis; type: functional, organism-based
Plasmodium falciparum [20] = assay: Synergistic antimalarial activity against synchronized ring stage Plasmodium falciparum 3D7 infected in human RBC assessed as mean fractional inhibitory concentration at 2:3 ratio of ART to compound incubated for 72 hrs by giemsa staining based flow cytometric analysis; type: functional
Plasmodium falciparum [21] = assay: Synergistic antimalarial activity against synchronized ring stage Plasmodium falciparum 3D7 infected in human RBC assessed as mean fractional inhibitory concentration at 1:4 ratio of ART to compound incubated for 72 hrs by giemsa staining based flow cytometric analysis; type: functional
[22] = Binding affinity to recombinant N-terminal 6His tagged Plasmodium falciparum alpha-1 tubulin expressed in Escherichia coli BL21 assessed as dissociation constant by SPR analysis
Plasmodium falciparum [23] = assay: Binding affinity to recombinant N-terminal 6His tagged Plasmodium falciparum beta-tubulin expressed in Escherichia coli BL21 at 0.78 to 75 uM by SPR analysis; conditions: dose 0.78-75 µM
Plasmodium falciparum [24] = assay: Binding affinity to recombinant N-terminal 6His tagged Plasmodium falciparum alpha-1 tubulin expressed in Escherichia coli BL21 assessed as thermo-stabilization incubated at 4 to 80 degreeC for 3 mins followed by 5 mins incubation at room temperature by thermal shift assay; conditions: time 8.0 min

With `Cc1ccc2c(c1)C(=O)N([C@H](CC(C)C)c1nc3ccccc3n1Cc1c[nH]nn1)C2=O` the inhibition at 1 µM (Plasmodium falciparum [1]) was -64% and the inhibition at 10 µM (Plasmodium falciparum [2]) was 71%.
Work on `CCC(C)C(c1nc2ccccc2n1Cc1c[nH]nn1)N1C(=O)c2ccccc2C1=O` (stereo unspecified) yielded an IC50 (Plasmodium falciparum [3]) of 700 nM and a CC50 at 24 h [4] of 2080 nM.
In the case of `CC(C)CC(c1nc2ccccc2n1Cc1cn(-c2ccccc2)nn1)N1C(=O)c2ccccc2C1=O` (stereo unspecified), the IC50 (Plasmodium falciparum [3]) is reported as 900 nM and the CC50 at 24 h [4] is reported as 910 nM.
With `Cc1ccc2c(c1)C(=O)N([C@H](CC(C)C)c1nc3ccccc3n1Cc1cn(-c3ccc(C(F)(F)F)cc3)nn1)C2=O` the inhibition at 1 µM (Plasmodium falciparum [1]) was 37% and the inhibition at 10 µM (Plasmodium falciparum [2]) was 75%.
`CCC(C)[C@H](c1nc2ccccc2n1Cc1cn(-c2ccccc2F)nn1)N1C(=O)c2ccc(C)cc2C1=O` (stereo partly specified) showed an inhibition at 1 µM (Plasmodium falciparum [1]) of -23% and an inhibition at 10 µM (Plasmodium falciparum [2]) of 91%.
With `CC(C)[C@H](c1nc2ccccc2n1Cc1cn(-c2ccc(C(F)(F)F)cc2)nn1)N1C(=O)c2ccccc2C1=O` the IC50 [5] was > 100000 nM, the inhibition at 1 µM (Plasmodium falciparum [1]) was 22% and the inhibition at 10 µM (Plasmodium falciparum [2]) was 75%. The IC50 (Plasmodium falciparum [6]) was 2300 nM, the IC50 (Plasmodium falciparum [7]) was 3920 nM and the Activity (Plasmodium falciparum [8]) was “Dose dependent effect”. The Activity (Erythrocyte) was “Non-Toxic”, the selectivity ratio [9] was 43 and the Activity [10] was “Non-Toxic”. The Activity (Plasmodium falciparum [11]) was “Active”, the Activity (Plasmodium falciparum [12]) was “Active” and the Activity (Plasmodium falciparum [13]) was “Active”. The Activity (Plasmodium falciparum [14]) was 5.06, the FIC (Plasmodium falciparum [15]) was 0.93 and the Activity (Plasmodium berghei [16]) was 3.9%. For the same molecule, the Activity (Plasmodium berghei [17]) was “Active” and the MST (Plasmodium berghei [18]) was 10.47 days.
`CCC(C)C(c1nc2ccccc2n1Cc1cn(-c2ccc(F)cc2)nn1)N1C(=O)c2ccccc2C1=O` (stereo unspecified) gave an IC50 (Plasmodium falciparum [3]) of 900 nM and a CC50 at 24 h [4] of 28800 nM.
In the case of `CC(C)[C@H](c1nc2ccccc2n1Cc1cn(-c2c(F)cccc2F)nn1)N1C(=O)c2ccccc2C1=O`, the inhibition at 1 µM (Plasmodium falciparum [1]) is reported as -26% and the inhibition at 10 µM (Plasmodium falciparum [2]) is reported as 91%.
Work on `CCC(C)[C@H](c1nc2ccccc2n1Cc1cn(-c2c(F)c(F)c(F)c(F)c2F)nn1)N1C(=O)c2ccccc2C1=O` (stereo partly specified) yielded an inhibition at 1 µM (Plasmodium falciparum [1]) of -44% and an inhibition at 10 µM (Plasmodium falciparum [2]) of 77%.
`CCC(C)[C@H](c1nc2ccccc2n1Cc1cn(-c2c(F)c(F)c(F)c(F)c2F)nn1)N1C(=O)c2ccc(C)cc2C1=O` (stereo partly specified) gave an inhibition at 1 µM (Plasmodium falciparum [1]) of -4% and an inhibition at 10 µM (Plasmodium falciparum [2]) of 95%.
For `CCC(C)[C@H](c1nc2ccccc2n1Cc1cn(-c2ccc(C(F)(F)F)cc2)nn1)N1C(=O)c2ccccc2C1=O` (stereo partly specified), the IC50 [5] was > 100000 nM, the inhibition at 1 µM (Plasmodium falciparum [1]) was 45% and the inhibition at 10 µM (Plasmodium falciparum [2]) was 68%. For the same molecule, the IC50 (Plasmodium falciparum [6]) was 640 nM, the IC50 (Plasmodium falciparum [7]) was 1620 nM and the Activity (Plasmodium falciparum [8]) was “Dose dependent effect”. The Activity (Erythrocyte) was “Non-Toxic”, the selectivity ratio [9] was 156 and the Activity [10] was “Non-Toxic”. For the same molecule, the Activity (Plasmodium falciparum [19]) was “Active”, the Activity (Plasmodium falciparum [12]) was “Active” and the Activity (Plasmodium falciparum [13]) was “Active”. It also gave an Activity (Plasmodium falciparum [14]) of 4.61, an FIC (Plasmodium falciparum [20]) of 0.86 and an FIC (Plasmodium falciparum [21]) of 0.67. The Kd [22] was 26400 nM, the Activity (Plasmodium falciparum [23]) was “inactive” and the Activity (Plasmodium falciparum [24]) was “Active”. For the same molecule, the Activity (Plasmodium berghei [16]) was 2.1%, the Activity (Plasmodium berghei [17]) was “Active” and the MST (Plasmodium berghei [18]) was 11.42 days.
